Assay results reported in US12195427B2, “MASP-2 inhibitors and methods of use” (priority 2018, dated 2025).
Where a name gives a salt, the structure may show the parent alone.

What was measured:
[1] = target: MASP-2 (CCP1-CCP2-SP) (Homo sapiens (Human), UniProt O00187); test: Enzymatic Assay for MASP-2 (fluorogenic substrate); format: biochemical
[2] = tested on: Lectin Pathway; test: Lectin Pathway Activation Assay in Human Serum (mannan-coated ELISA, C3c detection); format: biochemical; settings: 1% human serum
Method: Microtiter ELISA plate was coated with mannan from Saccharomyces cerevisiae (Sigma-Aldrich, M7504) for overnight at 4° C. in coating buffer [15 mM Na2CO3, 35 mM NaHCO3].

[3] = target: MASP-2 CCP2-SP (Homo sapiens (Human), UniProt O00187); test: MASP-2 co-crystallization, X-ray crystallography and structure analysis (H-bonds, van der Waals contacts); set-up: van der Waals contact distance, MASP-2 HIS 483 atom CD2 / van der Waals contact distance, MASP-2 HIS 483 atom NE2 / van der Waals contact distance, SER 654 C to compound atom / van der Waals contact distance, SER 654 O to compound atom / van der Waals contact distance, TRP 655 C to compound atom / van der Waals contact distance, MASP-2 GLY 528 atom CA / van der Waals contact distance TRP 655 atom CZ3 / van der Waals contact distance TRP 655 atom N / van der Waals contact distance TRP 655 atom CE3 / van der Waals contact distance GLY 656 atom C / van der Waals contact distance GLY 656 atom CA / van der Waals contact distance GLY 656 atom O / van der Waals contact distance, MASP-2 TYR 607 atom CD1 / van der Waals contact distance, MASP-2 PRO 606 atom O / d(C3,CA1) / d(CA1,N1)2 / d(H4,O1) / d(H4,O2) / d(O1,O2) / d(CA1,O2) / d(CA6,O1) / d(CA6,O2) / d(CA1,C5) / d(O2,H3) / d(N2,C2) / d(CA5,N2) / d(N2,C4) / d(N2,C6) / d(N2,CA3) / d(N2,O3) / d(O4,H2): unit not given beside the values; settings: for H-bond distance to MASP-2 GLY 656 atom N: GLY 656 N; for H-bond distance to MASP-2 GLY 656 atom O: GLY 656 O; for H-bond distance to MASP-2 SER 654 atom O: SER 654 O; for van der Waals contact distance, MASP-2 HIS 483 atom NE2 / van der Waals contact distance, MASP-2 HIS 483 atom CD2: Table A2-1; for van der Waals contact distance TRP 655 atom CE3: MASP-2 TRP 655 CE3, compound atom in line below; for van der Waals contact distance TRP 655 atom CZ3: MASP-2 TRP 655 CZ3; for H-bond distance to MASP-2 ASP 627 atom OD2: ASP 627 OD2; for H-bond distance to MASP-2 SER 657 atom O: SER 657 O; for van der Waals contact distance GLY 656 atom O: MASP-2 GLY 656 O; for van der Waals contact distance SER 657 atom C: MASP-2 SER 657 C, columns c12-c13 (inferred);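 as to Ligand-pharmacophore element distance, pharmacophore element C2: distance from averaged pharmacophore element to bound ligand; missing value means element absent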;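 as to Ligand-pharmacophore element distance, pharmacophore element C3: distance from averaged pharmacophore element to bound ligand; missing value means element absent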;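 as to Ligand-pharmacophore element distance, pharmacophore element C4: distance from averaged pharmacophore element to bound ligand; missing value means element absent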;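 as to Ligand-pharmacophore element distance, pharmacophore element C5: distance from averaged pharmacophore element to bound ligand; missing value means element absent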
Chain of MASP-2 CCP2-SP (O00187 445-686): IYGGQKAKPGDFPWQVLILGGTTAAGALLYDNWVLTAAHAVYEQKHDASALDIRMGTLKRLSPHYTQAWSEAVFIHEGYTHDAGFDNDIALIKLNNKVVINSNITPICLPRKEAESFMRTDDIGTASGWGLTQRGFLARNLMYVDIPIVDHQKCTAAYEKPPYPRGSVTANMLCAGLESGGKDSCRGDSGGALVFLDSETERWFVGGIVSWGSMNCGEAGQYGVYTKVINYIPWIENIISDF
Chain of MASP-2 CCP2-SP (O00187 364-432 partner): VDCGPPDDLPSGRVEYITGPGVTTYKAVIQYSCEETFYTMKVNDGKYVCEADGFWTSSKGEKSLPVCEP
How it was run: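 First, CCP2-SP constructs with or without a 6His tag are produced in E. coli. Crystals are then soaked once or twice with inhibitor, cryoprotected in 20% glycerol or frozen directly, and diffracted at synchrotron beamlines. Phasing uses molecular replacement with parts of 1Q3X.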

[4] = Table A5-1 pharmacophore: distance between elements, S2/S1 region
[5] = Table A5-2 pharmacophore distance, S3/S4 region
[6] = Table A7-1, between pharmacophore elements of the bound compound

Chain of MASP-2 (CCP1-CCP2-SP) (O00187 445-686): as the sequence (O00187 445-686) above

`N=C(N)c1ccc2[nH]c(Cc3ccccn3)nc2c1` [compound 2002, 2-(Pyridin-2-ylmethyl)-1H-benzo[d]imidazole-5-carboximidamide Dihydrochloride] was tested, and the “MASP-2 versus thrombin selectivity” value ([1]; +Zn) was “++ (+Zn) (5.0 to 25-fold)”.

With `Cc1cc(Cl)cc(CNC(=O)[C@H](C)NC(=O)[C@H]2C[C@H](Cc3ccccc3)CN2)c1O` [compound 1307, (2R,4S)-4-Benzyl-N—((S)-1-((5-chloro-2-hydroxy-3-methylbenzyl)amino)-1-oxopropan-2-yl)pyrrolidine-2-carboxamide] the IC50 [2] was 50 to 500 nM, the “H-bond distance to MASP-2 GLY 656 atom N” value ([3]; Table A1 (H-Bonds)) was 2.95 and the “H-bond distance to MASP-2 GLY 656 atom O” value ([3]; Table A1 (H-Bonds)) was 2.86. For the same compound, the “H-bond distance to MASP-2 SER 654 atom O” value ([3]; Table A1 (H-Bonds)) was 2.91, the “van der Waals contact distance, MASP-2 HIS 483 atom NE2” value [3] was 3.5 and the “van der Waals contact distance, MASP-2 GLY 528 atom CA” value ([3]; Table A2-2) was 3.75. The “van der Waals contact distance, MASP-2 PHE 529 atom CD2” value ([3]; Table A2-3) was 3.69, the “van der Waals contact distance, MASP-2 PHE 529 atom CZ” value ([3]; Table A2-3) was 3.86 and the “van der Waals contact distance, MASP-2 TYR 607 atom CD1” value ([3]; Table A2-4) was 3.83. For the same compound, the “van der Waals contact distance, SER 654 C to compound atom” value ([3]; Table A2-11) was 3.79, the “van der Waals contact distance, VAL 653 CG1 to compound atom” value ([3]; Table A2-11) was 3.47 and the “van der Waals contact distance TRP 655 atom CE3” value ([3]; Table A2-13) was 3.75. The “van der Waals contact distance TRP 655 atom CZ3” value ([3]; Table A2-13) was 3.76, the “Ligand-pharmacophore element distance, pharmacophore element C2” value ([3]; Table A4-1, element C2) was 0 and the “Ligand-pharmacophore element distance, pharmacophore element C3” value ([3]; Table A4-1, element C3) was 0. The “Ligand-pharmacophore element distance, pharmacophore element C4” value ([3]; Table A4-1, element C4) was 0, the “Ligand-pharmacophore element distance, pharmacophore element C5” value ([3]; Table A4-1, element C5) was 0.37 and the “Ligand-pharmacophore element distance, pharmacophore element C6” value ([3]; Table A4-1, element C6) was 0. The “Ligand-pharmacophore element distance, pharmacophore element C7” value ([3]; Table A4-1, element C7) was 0.76, the “Ligand-pharmacophore element distance, pharmacophore element CA1” value ([3]; Table A4-1, element CA1) was 1.55 and the “Ligand-pharmacophore element distance, pharmacophore element CA2” value ([3]; Table A4-1, element CA2) was 0.17. The “Ligand-pharmacophore element distance, pharmacophore element CA3” value ([3]; Table A4-1, element CA3) was 0, the “Ligand-pharmacophore element distance, pharmacophore element CA4” value ([3]; Table A4-1, element CA4) was 0 and the “Ligand-pharmacophore element distance, pharmacophore element CA5” value ([3]; Table A4-1, element CA5) was 0. The “Ligand-pharmacophore element distance, pharmacophore element CA6” value ([3]; Table A4-1, element CA6) was 0, the “d(CA1,C5)” value [3, 4] was 3.13 and the “d(CA1,O1)” value [3, 4] was 4.60. For the same compound, the “d(CA1,O2)” value [3, 4] was 4.57, the “d(CA1,O4)” value [3, 4] was 2.74 and the “d(H4,O1)” value [3, 4] was 3.15. For the same compound, the “d(H4,O2)” value [3, 4] was 3.80, the “d(O1,O2)” value [3, 4] was 3.17 and the “d(O4,H2)” value [3, 4] was 0.98. The “d(N2,CA2)” value [3, 5] was 6.14, the “d(O2,H3)” value [3, 5] was 2.09 and the “d(O2,N2)” value [3, 5] was 2.81. The “a(C5, CA1, O1)” value ([3]; Table A6-1 pharmacophore angle) was 161.35, the “a(CA1, O1, O2)” value ([3]; Table A6-1 pharmacophore angle) was 109.57 and the “a(CA1, O4, H2)” value ([3]; Table A6-1 pharmacophore angle) was 127.11. For the same compound, the “a(O1, CA1, C7)” value ([3]; Table A6-1 pharmacophore angle) was 121.00, the “a(O1, CA1, O4)” value ([3]; Table A6-1 pharmacophore angle) was 66.49 and the “a(O1, O2, H4)” value ([3]; Table A6-1 pharmacophore angle) was 126.83. For the same compound, the “a(O1, O2, H3)” value ([3]; Table A6-2 pharmacophore angle) was 129.22, the “a(O1, O2, N2)” value ([3]; Table A6-2 pharmacophore angle) was 142.81 and the “a(O2, N2, CA2)” value ([3]; Table A6-2 pharmacophore angle) was 155.37. The “Pharmacophore torsion angle a(C5, CA1, O1, H4)” value [3, 6] was −6.78, the “Pharmacophore torsion angle a(C7, CA1, O1, H4)” value [3, 6] was −161.01 and the “Pharmacophore torsion angle a(H4, O1, O2, H3)” value [3, 6] was −163.22. The “Pharmacophore torsion angle a(H4, O1, O2, N2)” value [3, 6] was −170.13, the “Pharmacophore torsion angle a(O1, H4, O2, CA1)” value [3, 6] was −88.47 and the “Pharmacophore torsion angle a(O1, O2, N2, CA2)” value ([3]; Table A7-2, between pharmacophore elements of the bound compound) was 138.35.

With `C[C@H](NC(=O)[C@H]1C[C@@H](c2ccccc2)CN1)C(=O)NCc1ccc2c(N)nccc2c1` [compound 1089] the Ki [1] was < 500 nM, the “H-bond distance to MASP-2 ASP 627 atom OD2” value ([3]; Table A1 (H-Bonds)) was 2.8 and the “H-bond distance to MASP-2 GLY 656 atom N” value ([3]; Table A1 (H-Bonds)) was 3.3. For the same compound, the “H-bond distance to MASP-2 GLY 656 atom O” value ([3]; Table A1 (H-Bonds)) was 2.82, the “H-bond distance to MASP-2 SER 654 atom O” value ([3]; Table A1 (H-Bonds)) was 2.93 and the “H-bond distance to MASP-2 SER 657 atom O” value ([3]; Table A1 (H-Bonds)) was 2.93. For the same compound, the “van der Waals contact distance, MASP-2 HIS 483 atom CD2” value [3] was 3.71, the “van der Waals contact distance, MASP-2 HIS 483 atom NE2” value [3] was 3.83 and the “van der Waals contact distance, MASP-2 PRO 606 atom O” value ([3]; Table A2-4) was 3.4. For the same compound, the “van der Waals contact distance, SER 654 O to compound atom” value ([3]; Table A2-12) was 3.57, the “van der Waals contact distance TRP 655 atom CE3” value ([3]; Table A2-13) was 3.59 and the “van der Waals contact distance GLY 656 atom O” value ([3]; Table A2-14) was 2.95. The “van der Waals contact distance SER 657 atom C” value ([3]; Table A2-14) was 3.86.

`Cc1nc(N)ccc1CNC(=O)[C@H](C)NC(=O)[C@H]1C[C@@H](c2cccc(CN)c2)CN1` [compound 1291, (2R,4S)—N—((S)-1-(((6-Amino-2-methylpyridin-3-yl)methyl)amino)-1-oxopropan-2-yl)-4-(3-(aminomethyl)phenyl)pyrrolidine-2-carboxamide] showed a Ki [1] of 500 to 2500 nM.

With `C[C@H](NC(=O)[C@H]1C[C@@H](c2ccccc2)CCN1)C(=O)NCc1ccc(C(=N)N)cc1` [compound 1230, (2R,4S)—N—((S)-1-((4-Carbamimidoylbenzyl)amino)-1-oxopropan-2-yl)-4-phenylpiperidine-2-carboxamide Dihydrochloride] the IC50 [2] was < 50 nM.

`Cc1cccc(CNC(=O)[C@H](C)NC(=O)[C@H]2C[C@H](Cc3ccccc3)CN2)c1-n1ncnn1` [compound 1437, (2R,4S)-4-Benzyl-N—((S)-1-((3-methyl-2-(2H-tetrazol-2-yl)benzyl)amino)-1-oxopropan-2-yl)pyrrolidine-2-carboxamide] was tested, and the Ki [1] was 500 to 2500 nM.

With `C[C@H](NC(=O)[C@H](N)CCc1ccccc1)C(=O)NCc1cc(Cl)ccc1-n1cnnn1` [compound 1325, (R)-2-amino-N—((S)-1-((5-chloro-2-(1H-tetrazol-1-yl)benzyl)amino)-1-oxopropan-2-yl)-4-phenylbutanamide] the Ki [1] was 500 to 2500 nM.

With `C[C@H](NC(=O)[C@H]1C[C@H](Cc2ccc(-c3ccccc3)cc2)CN1)C(=O)NCc1cnc2[nH]cc(Cl)c2c1` [compound 1356, (2R,4S)-4-([1,1′-Biphenyl]-4-ylmethyl)-N—((S)-1-(((3-chloro-1H-pyrrolo[2,3-b]pyridin-5-yl)methyl)amino)-1-oxopropan-2-yl)pyrrolidine-2-carboxamide] the IC50 [2] was 50 to 500 nM.

In the case of `C[C@H](NC(=O)[C@H](N)CCc1ccccc1)C(=O)NCc1ccc(N)nc1` [compound 1007], the Ki [1] is reported as < 500 nM, the “H-bond distance to MASP-2 ASP 627 atom OD2” value ([3]; Table A1 (H-Bonds)) is reported as 3.27 and the “H-bond distance to MASP-2 SER 628 atom O” value ([3]; Table A1 (H-Bonds), SER 628 O) is reported as 2.59. For the same compound, the “H-bond distance to MASP-2 SER 654 atom O” value ([3]; Table A1 (H-Bonds)) was 2.94, the “H-bond distance to MASP-2 SER 657 atom O” value ([3]; Table A1 (H-Bonds)) was 2.88 and the “van der Waals contact distance, MASP-2 HIS 483 atom CD2” value [3] was 3.38. For the same compound, the “van der Waals contact distance, MASP-2 PHE 529 atom CD1” value ([3]; Table A2-3) was 3.83, the “van der Waals contact distance, MASP-2 PHE 529 atom CZ” value ([3]; Table A2-3) was 3.82 and the “van der Waals contact distance, MASP-2 TYR 607 atom CD1” value ([3]; Table A2-4) was 3.84. The “van der Waals contact distance, MASP-2 amino acid atom to compound atom” value ([3]; Table A2-9, ARG 630, AA atoms CG, CZ) was 3.61, the “van der Waals contact distance, TRP 655 CA to compound atom” value ([3]; Table A2-12) was 3.31 and the “van der Waals contact distance GLY 656 atom C” value ([3]; Table A2-13, MASP-2 GLY 656 C) was 3.74. The “van der Waals contact distance TRP 655 atom CE3” value ([3]; Table A2-13) was 3.69, the “van der Waals contact distance TRP 655 atom CZ3” value ([3]; Table A2-13) was 3.78 and the “van der Waals contact distance GLY 656 atom N” value ([3]; Table A2-14, MASP-2 GLY 656 N) was 3.71. For the same compound, the “van der Waals contact distance GLY 656 atom O” value ([3]; Table A2-14) was 3.85 and the “van der Waals contact distance SER 657 atom C” value ([3]; Table A2-14) was 3.87.
